Reference: paper PMC9849163, “Characterisation of AMB-FUBINACA metabolism and CB1-mediated activity of its acid metabolite” (Forensic Toxicology, 2022)
pEC50: −log10 of the molar value.

Assays:
[1] = target: T1, cannabinoid type-1 receptor (CB1) (Homo sapiens, UniProt P21554); assay: BRET CAMYEL cAMP inhibition assay (agonism); also weak radioligand displacement ([…] at […]); format: cell-based
T1 construct: gene CNR1; 3HA-tagged human CB1 in HEK293 cells

[2] = target: T2, CES1 (carboxylesterase 1, CES1A1) (Homo sapiens, UniProt P23141); assay: product of AMB-FUBINACA hydrolysis by recombinant CES1, HPLC-DAD; format: biochemical
T2 construct: CES1 isoform b (CES1b/CES1A1) human recombinant
T2 sequence (P23141 18-567): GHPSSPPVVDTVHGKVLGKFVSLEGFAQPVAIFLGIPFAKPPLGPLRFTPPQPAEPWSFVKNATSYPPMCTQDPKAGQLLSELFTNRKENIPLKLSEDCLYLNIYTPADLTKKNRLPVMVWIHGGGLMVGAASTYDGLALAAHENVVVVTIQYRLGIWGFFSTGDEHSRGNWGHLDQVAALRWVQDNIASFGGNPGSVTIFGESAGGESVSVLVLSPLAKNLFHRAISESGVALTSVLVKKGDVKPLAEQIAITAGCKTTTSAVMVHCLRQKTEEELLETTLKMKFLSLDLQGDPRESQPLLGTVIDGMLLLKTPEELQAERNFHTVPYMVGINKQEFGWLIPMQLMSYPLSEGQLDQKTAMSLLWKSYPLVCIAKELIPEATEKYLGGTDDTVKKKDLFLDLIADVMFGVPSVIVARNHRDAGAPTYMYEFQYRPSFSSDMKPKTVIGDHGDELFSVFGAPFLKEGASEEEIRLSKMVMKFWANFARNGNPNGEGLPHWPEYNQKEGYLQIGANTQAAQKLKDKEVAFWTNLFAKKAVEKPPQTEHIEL

[3] = target: T2, CES1 (carboxylesterase 1, CES1A1); assay: hydrolysis by recombinant CES1, HPLC-DAD time course (t1/[…] s at […]); format: biochemical
[4] = target: T1, cannabinoid type-1 receptor (CB1); assay: BRET CAMYEL cAMP inhibition assay (agonism) in HEK293 cells stably expressing 3HA-hCB1; format: cell-based
[5] = target: T3, CES2 (carboxylesterase-2) (Homo sapiens, UniProt O00748); assay: p-nitrophenol formation by recombinant CES2, absorbance at […] nm; format: biochemical
T3 construct: carboxylesterase-2 (CES2) human recombinant
T3 sequence (O00748 27-559): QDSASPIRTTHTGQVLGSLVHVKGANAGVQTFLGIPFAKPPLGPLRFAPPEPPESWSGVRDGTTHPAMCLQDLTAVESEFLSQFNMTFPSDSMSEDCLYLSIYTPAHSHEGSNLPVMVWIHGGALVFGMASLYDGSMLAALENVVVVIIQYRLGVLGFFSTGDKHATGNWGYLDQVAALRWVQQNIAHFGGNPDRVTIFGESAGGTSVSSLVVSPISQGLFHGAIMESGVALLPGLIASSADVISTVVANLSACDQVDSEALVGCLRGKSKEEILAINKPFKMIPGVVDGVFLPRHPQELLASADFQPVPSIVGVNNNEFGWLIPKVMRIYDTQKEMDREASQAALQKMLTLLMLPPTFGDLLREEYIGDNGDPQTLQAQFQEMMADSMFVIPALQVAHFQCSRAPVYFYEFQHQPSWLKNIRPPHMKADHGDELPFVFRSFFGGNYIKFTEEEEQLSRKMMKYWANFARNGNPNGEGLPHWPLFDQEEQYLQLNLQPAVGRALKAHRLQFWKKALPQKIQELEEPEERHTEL

[6] = target: T2, CES1 (carboxylesterase 1, CES1A1); assay: p-nitrophenol formation by recombinant CES1, absorbance at […] nm; format: biochemical
[7] = target: T2, CES1 (carboxylesterase 1, CES1A1); assay: inhibition of PNPA hydrolysis by recombinant CES1, absorbance at […] nm; format: biochemical; conditions: read-out: % of control velocity at 50 μM
[8] = target: T3, CES2 (carboxylesterase-2); assay: inhibition of PNPA hydrolysis by recombinant CES2, absorbance at […] nm; format: biochemical; conditions: read-out: % of control velocity at 50 μM

T1 sequence (P21554 whole entry): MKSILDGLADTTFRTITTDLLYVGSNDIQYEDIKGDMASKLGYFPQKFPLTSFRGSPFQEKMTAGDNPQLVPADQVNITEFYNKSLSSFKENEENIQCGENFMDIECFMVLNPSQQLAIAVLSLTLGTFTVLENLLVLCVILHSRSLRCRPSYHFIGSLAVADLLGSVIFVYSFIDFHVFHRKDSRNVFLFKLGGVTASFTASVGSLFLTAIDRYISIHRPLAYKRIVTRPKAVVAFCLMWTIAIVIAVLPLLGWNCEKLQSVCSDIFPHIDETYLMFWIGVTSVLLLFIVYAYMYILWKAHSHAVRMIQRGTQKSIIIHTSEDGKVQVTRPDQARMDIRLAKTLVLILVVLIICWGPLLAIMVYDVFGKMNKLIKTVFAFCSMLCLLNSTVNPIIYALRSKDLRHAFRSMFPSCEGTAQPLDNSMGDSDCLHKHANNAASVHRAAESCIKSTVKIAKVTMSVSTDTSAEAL

SMILES: CC(C)[C@H](NC(=O)c1nn(Cc2ccc(F)cc2)c2ccccc12)C(=O)O [AMB-FUBINACA acid, methyl (2S)-2-((1-((4-fluorophenyl)methyl]indazole-3-carbonyl)amino)-3-methylbutanoic acid]
- pEC50 [1]: 6.35
- product of AMB-FUBINACA hydrolysis by recombinant CES1, HPLC-DAD [2]: No metabolites other than AMB-FUBINACA acid were generated

SMILES: COC(=O)[C@@H](NC(=O)c1nn(Cc2ccc(F)cc2)c2ccccc12)C(C)C [AMB-FUBINACA, methyl (2S)-2-((1-((4-fluorophenyl)methyl)indazole-3-carbonyl)amino)-3-methylbutanoate]
- half-life at 3 µM [3]: 2 min
- pEC50 [4]: 9.83

SMILES: CC(=O)Oc1ccc([N+](=O)[O-])cc1 [p-nitrophenyl acetate]
- p-nitrophenol formation by recombinant CES2, absorbance at 405 nm [5]: 221 nmol/min/mg
- p-nitrophenol formation by recombinant CES1, absorbance at 405 nm [6]: 296 nmol/min/mg

SMILES: CCCc1nc2c(C)cc(-c3nc4ccccc4n3C)cc2n1Cc1ccc(-c2ccccc2C(=O)O)cc1 [telmisartan]
- remaining activity at 50 µM [7]: 71%
- remaining activity at 50 µM [8]: 58.2%
